Results: patent US5811391A, “Cyclic CS-1 peptidomimetics, compositions and methods of using same” (Cytel Corporation, priority 1995, dated 1998)
Positions of bridges follow the written chain, without caps; N, C: chain ends. Residues, ends and D or L forms follow the SMILES beside them.

Experiments:
[1] = biological target: VLA-4 (Homo sapiens, UniProt P05556+P13612); assay: In vitro binding assay: 51Cr-labeled Jurkat cells to solid phase-bound CS-1 peptide (SEQ ID NO:5); assay type: cell-based; set-up: inflammatory cells that contain the VLA-4 receptor [Jurkat cells; host or cells: Jurkat cells (human T lymphoblastic line); conditions: for Relative Potency: Table 1, normalized IC50 potency relative to standard peptide SEQ ID NO:6 (=1), Jurkat cells, CS-1
Description: Binding inhibition is measured here as a concentration of peptide that inhibits one-half the binding between a standard number of Jurkat cells and a standard amount of CS-1 peptide bound to the surface of a microtiter plate well. Those concentrations are conveniently expressed as IC50 values, smaller numbers indicating a lower concentration required to inhibit 50 percent binding and therefore greater potency. Further specifics of this assay are provided hereinafter.
Jurkat cells (ATCC TIB 152), a human T lymphoblastic line, labeled with ^51 chromium were used to assay in vitro binding inhibition provided by various peptides discussed herein.
The plates were prepared as follows: The 25-mer CS-1 peptide (SEQ ID NO:5) dissolved at 0.5-1 μg/ml in a buffer of 0.1M NaHCO3 at pH 9.5 that also contained 10 μg/ml of bovine serum albumin (BSA) or a conjugate of the CS-1 peptide linked to ovalbumin (CS-1-OVA) dissolved at 1-2.5 μg/ml in the same buffer was used as the substrate. Each well of the microtiter plates was coated with 50 μl of substrate or buffer alone for controls. The wells were permitted to dry out completely and were then rinsed twice with PBS at pH 7.4. Non-specific binding sites of each well were then blocked using 200 μl per well of RPMI/1 percent BSA for two hours at room temperature. Both solid phase-affixed substrates provided similar results.
Jurkat cells (3-5×10^6 cells) were placed into a 15 ml FALCON™ round-bottom tube with a cap. The tube was centrifuged, and the extra medium was then removed.
Two hundred microliters of a ^51 Cr labeling solution were added to the centrifuged cells and maintained in contact with the cells for 90-120 minutes in a warm room. This procedure typically provides about 50,000-100,000 cpm/well with about 80-100 percent cell viability. Longer contact times provide a greater amount of labeling but lower cell viability.
The labeled cells were washed with (i) complete medium, (ii) 1mM EDTA/PBS and then (iii) RPM1/1 percent BSA free of serum components. The cells were centrifuged after each washing. The cells were finally resuspended in serum-free RPMI/1 percent BSA at a concentration of 1×10^6 viable cells/ml, which provides a concentration that is diluted by one-half in the assay.
Cyclic inhibitor peptides were prepared as stock solutions at 20 mg/ml in DMSO in 1.5 ml cryogenic screwcap vials, and were stored at -70° C. Using FLOW™ round-bottom or V-bottom microtiter plates, the inhibitor peptides were prepared at twice the assay concentration in RPMI/1 percent BSA at 60 μl/well.
Four initial dilutions were typically used.
The ^51 Cr-labeled cells (1×10^6 cells at 60 μl/well) were then admixed with the diluted cyclic peptide solutions. The admixtures were maintained at room temperature (about 22° C.) for 30 minutes.
One hundred microliters of each inhibitor peptide/cell admixture were transferred to the substrate-coated wells. This was done in triplicate for each dilution. The resulting plates were incubated for 30 minutes at 37° C. and then washed gently three times with RPMI/1 percent BSA at 200 μl/well. Binding was observed microscopically, particularly after the second wash.
The bound cells were then lysed by the addition of a 0.5 percent solution of sodium dodecylsulfate in water at 100 μl/well. The resulting solutions were then processed for counting and calculation of IC50 values following usual procedures. Appropriate positive and negative controls were used with each plate so that the results of separate assays could be normalized and compared.
The potency data of Table 1 and Table 2 are so normalized. The absolute IC50 value for the peptide of SEQ ID NO:7 is 0.3 μM.

[2] = tested on: porcine peripheral blood lymphocytes / coronary artery endothelial cells and smooth muscle cells; assay: In vitro porcine allograft model: transendothelial lymphocyte migration; assay type: cell-based; conditions: 10 μg/ml in the medium, IL-1β-stimulated SMC; present-tense example
Description: A similar study is carried out in vitro using porcine coronary artery endothelial cells (EC; as are present in the IEL) and smooth muscle cells (SMC; as are present in the medial layer of the artery). The two cell types are cultured using a membrane transwell system, with the SMC on the bottom layer in M-199 medium (Gibco Labs.). The SMC are stimulated with 100 ng/ml of interleukin-1β (IL-1β) for 24 hours prior to the start of the assay. Porcine peripheral blood lymphocytes are separated by Ficoll-Hypaque, radiolabeled and incubated overnight (about 18 hours) on the EC.

[3] = biological target: T1, VLA-4/sVCAM-1 (Homo sapiens, UniProt P05556+P13612); assay: In vitro binding assay: Jurkat cells to solid phase-bound sVCAM-1; assay type: cell-based
T1 construct: host or cells: Jurkat cells carry the VLA-4; The sVCAM-1 partner was made in house in transfected human embryonal kidney 293 cells (ATCC CRL 1573)
Description: Assays conducted using sVCAM-1 as solid phase-bound antigen were carried out substantially identically to those using CS-1. The sVCAM-1 polypeptide used had the same amino acid residue sequence as the materials described in Lobb et al., Biochem. Biophys. Res. Commun., 178:1498-1504 (1991) and Cybulsky et al., Proc. Natl. Acad. Sci., USA, 88:7859-7863 (1991). Human embryonal kidney line 293 (ATCC CRL 1573) cells were co-transfected with a plasmid (pCDNAI;invitrogen) containing the sVCAM-1 DNA sequence and plasmid pSV2-neo [Southern et al., J. Mol. Appl. Gen., 1:327-341 ([…])]. Cells were selected in DMEM, 10 percent fetal bovine serum and 600 μg/ml Geneticin. sVCAM-1 was purified from supernatants using a column containing monoclonal antibody P3H12 (anti-human VCAM-1) coupled to Sepharose 4B. The sVCAM-1 was eluted using 0.1M glycine at pH 2.5 following 50 column washes with PBS, pH 7.2. The eluate was immediately neutralized and dialyzed against PBS for use.

[4] = tested on: Jurkat cell adhesion to RA synovial sections; conditions: 10-mer at 500 μg/ml; reported in Elices et al., J. Clin. Invest. 1994; cited from earlier work

Sequence of VLA-4 (P13612 34-1032): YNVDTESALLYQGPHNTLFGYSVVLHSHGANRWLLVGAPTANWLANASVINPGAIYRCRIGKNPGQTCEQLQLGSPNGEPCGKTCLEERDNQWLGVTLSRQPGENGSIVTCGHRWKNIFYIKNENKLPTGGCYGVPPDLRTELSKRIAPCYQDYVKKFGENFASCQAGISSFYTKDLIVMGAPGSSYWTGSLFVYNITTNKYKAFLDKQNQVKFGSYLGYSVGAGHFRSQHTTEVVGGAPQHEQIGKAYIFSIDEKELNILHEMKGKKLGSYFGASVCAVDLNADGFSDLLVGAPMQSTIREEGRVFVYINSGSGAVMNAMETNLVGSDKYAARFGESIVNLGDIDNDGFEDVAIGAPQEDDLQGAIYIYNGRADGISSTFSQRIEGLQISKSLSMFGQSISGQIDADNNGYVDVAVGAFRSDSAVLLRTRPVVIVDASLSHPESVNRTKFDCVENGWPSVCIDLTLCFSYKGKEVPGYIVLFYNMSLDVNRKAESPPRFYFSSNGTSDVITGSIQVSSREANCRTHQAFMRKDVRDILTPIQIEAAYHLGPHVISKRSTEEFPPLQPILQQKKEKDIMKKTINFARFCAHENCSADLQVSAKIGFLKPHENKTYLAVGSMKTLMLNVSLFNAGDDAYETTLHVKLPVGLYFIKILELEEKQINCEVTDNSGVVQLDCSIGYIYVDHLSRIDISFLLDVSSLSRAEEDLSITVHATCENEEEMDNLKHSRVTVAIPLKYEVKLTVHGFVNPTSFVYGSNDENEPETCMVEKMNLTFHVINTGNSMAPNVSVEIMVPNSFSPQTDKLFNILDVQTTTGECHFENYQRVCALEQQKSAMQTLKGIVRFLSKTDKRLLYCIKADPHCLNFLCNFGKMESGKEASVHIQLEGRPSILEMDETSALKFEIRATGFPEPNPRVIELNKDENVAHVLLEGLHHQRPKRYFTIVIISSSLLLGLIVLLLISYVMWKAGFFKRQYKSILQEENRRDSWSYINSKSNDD
Sequence of VLA-4 (P05556 21-798): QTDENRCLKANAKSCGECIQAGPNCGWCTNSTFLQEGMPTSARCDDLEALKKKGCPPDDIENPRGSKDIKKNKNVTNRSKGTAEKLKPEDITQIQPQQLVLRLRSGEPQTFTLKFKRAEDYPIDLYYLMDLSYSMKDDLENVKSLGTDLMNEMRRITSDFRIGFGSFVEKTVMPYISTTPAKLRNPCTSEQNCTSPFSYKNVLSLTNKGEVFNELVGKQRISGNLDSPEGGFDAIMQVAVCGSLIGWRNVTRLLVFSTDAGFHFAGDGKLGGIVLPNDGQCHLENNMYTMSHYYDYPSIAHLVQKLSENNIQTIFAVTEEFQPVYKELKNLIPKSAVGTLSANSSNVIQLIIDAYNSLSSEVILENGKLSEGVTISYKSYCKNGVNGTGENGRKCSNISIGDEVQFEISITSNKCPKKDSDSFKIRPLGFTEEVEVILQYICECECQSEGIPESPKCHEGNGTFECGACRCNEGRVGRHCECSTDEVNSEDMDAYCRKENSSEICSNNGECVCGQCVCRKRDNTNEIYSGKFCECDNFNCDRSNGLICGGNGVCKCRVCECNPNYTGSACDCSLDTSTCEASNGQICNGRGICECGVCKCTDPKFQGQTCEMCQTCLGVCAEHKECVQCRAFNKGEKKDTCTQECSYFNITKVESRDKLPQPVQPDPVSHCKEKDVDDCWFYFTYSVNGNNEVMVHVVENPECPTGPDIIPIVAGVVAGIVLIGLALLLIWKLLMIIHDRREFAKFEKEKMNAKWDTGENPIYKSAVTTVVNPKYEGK
T1 sequence (P13612 34-1032): as the sequence (P13612 34-1032) above
T1 sequence (P05556 21-798): as the sequence (P05556 21-798) above

| Relative Potency [1] | Potency in inhibiting Jurkat cell binding to CS-1 relative to standard 10-mer of SEQ ID NO:6 ([1]; times/fold more potent than SEQ ID NO:6) | inhibition of binding between solid phase-bound sVCAM-1 and Jurkat cells (in words) [3] | Compound | transendothelial lymphocyte migration [2] | inhibition of Jurkat cell adhesion to RA synovial sections [4] |
| --- | --- | --- | --- | --- | --- |
| 122 | – | – | CC(C)C[C@@H]1NC(=O)[C@H](Cc2ccccc2)NC(=O)[C@@H](N)CSSC[C@@H](C(N)=O)NC(=O)[C@H](CO)NC(=O)[C@@H]2CCCN2C(=O)[C@H](Cc2ccccc2)NC(=O)[C@H](CC(=O)O)NC1=O [SEQ ID NO:13, CFLDFPSC-NH2] (H-CFLDFPSC-NH2; disulfide 1-8) | reduces lymphocyte migration | – |
| 1 | ~1 | no inhibition | GPEILDVPST [SEQ ID NO:6, standard 10-mer peptide GlyProGluIleLeuAspValProSerThr, set atone, reference compound] | – | can be inhibited |
